# Active and inactive are the calls of the source. No cut-off for these calls is given here.
# Assays:
# HepG2 = assay: Antiproliferative activity against human HepG2 cells assessed as reduction in cell viability incubated for 48 hrs by MTT assay; format: functional, cell-based; conditions: HepG2, 48 h
# [1] = Cytotoxicity against human HL7702 cells assessed as reduction in cell viability incubated for 48 hrs by MTT assay; format: toxicity, cell-based; conditions: HL7702 (L02) cells
# A549 = assay: Antiproliferative activity against human A549 cells assessed as reduction in cell viability incubated for 48 hrs by MTT assay; format: functional, cell-based; conditions: A549, 48 h
# NCI-H446 [2] = assay: Antiproliferative activity against human NCI-H446 cells assessed as reduction in cell viability incubated for 48 hrs by MTT assay; format: functional, cell-based; conditions: NCI-H446, 48 h
# [3] = Cytotoxicity against HBE (human bronchial epithelial) cells assessed as reduction in cell viability incubated for 48 hrs by MTT assay; format: toxicity, cell-based
# NCI-H446 [4] = assay: Induction of apoptosis in human NCI-H446 cells assessed as crumpled nuclei at 2 uM incubated for 24 hrs by DAPI staining based fluorescence inverted microscopic analysis; format: functional, cell-based
# [5] = Selectivity index, ratio of IC50 for cytotoxicity against HBE (human bronchial epithelial) cells to IC50 for antiproliferative activity against human NCI-H446 cells; format: toxicity, cell-based; conditions: HBE (human bronchial epithelial) cells versus NCI-H446 cells, read-out: Ratio IC50
IC50 (HepG2) [µM],IC50 (A549) [µM],IC50 (NCI-H446 [2]) [µM],Compound,IC50 at 48 h [1] [µM],IC50 at 48 h [3] [µM],Activity (NCI-H446 [4]),selectivity ratio [5]
1.38,1.59,1.56,C=CCc1ccc(OCCC)c(-c2ccc(OCCCCCCOC(=O)Cc3c4[n+](cc5c(OC)c(OC)ccc35)CCc3cc5c(cc3-4)OCO5)c(CC=C)c2)c1,4.28,3.59,,
2.72,0.86,0.65,CCCCCCCCCCCCc1c2[n+](cc3c(OC)c(OC)ccc13)CCc1cc3c(cc1-2)OCO3,2.78,1.23,,
2.85,5.5,4.72,C=CCc1ccc(OC)c(-c2ccc(OC(=O)Cc3c4[n+](cc5c(OC)c(OC)ccc35)CCc3cc5c(cc3-4)OCO5)c(CC=C)c2)c1,4.21,16.1,,
1.79,2.54,2.7,C=CCc1ccc(OCCCCCC[n+]2ccc(/C=C/c3c[nH]c4ccccc34)cc2)c(-c2ccc(OC)c(CC=C)c2)c1,3.88,6.17,,
> 50,> 50,> 50,COc1ccc2cc3[n+](cc2c1OC)CCc1cc2c(cc1-3)OCO2 [BERBERINE CHLORIDE],> 50,> 50,,
7.89,6.21,7.87,C=CCc1ccc(OCCC)c(-c2ccc(OCCCCCCCCCCOC(=O)Cc3c4[n+](cc5c(OC)c(OC)ccc35)CCc3cc5c(cc3-4)OCO5)c(CC=C)c2)c1,4.39,10.7,,
3.87,5.82,3.74,C=CCc1ccc(OCCCOC(=O)Cc2c3[n+](cc4c(OC)c(OC)ccc24)CCc2cc4c(cc2-3)OCO4)c(-c2ccc(OCCC)c(CC=C)c2)c1,2.6,9.5,,
1.82,3.41,2.37,C=CCc1ccc(OCCCCCCOC(=O)Cc2c3[n+](cc4c(OC)c(OC)ccc24)CCc2cc4c(cc2-3)OCO4)c(-c2ccc(OCCC)c(CC=C)c2)c1,5.7,7.08,,
4.53,5.32,6.34,C=CCc1ccc(OC)c(-c2ccc(OCCC[n+]3ccc(/C=C/c4c[nH]c5ccccc45)cc3)c(CC=C)c2)c1,8.12,20.4,,
1.74,2.87,1.4,C=CCc1ccc(OC)c(-c2ccc(OCCCCCCOC(=O)Cc3c4[n+](cc5c(OC)c(OC)ccc35)CCc3cc5c(cc3-4)OCO5)c(CC=C)c2)c1,4.37,5.09,,
2.39,3.44,3.37,C=CCc1ccc(OCCCCCCOC(=O)Cc2c3[n+](cc4c(OC)c(OC)ccc24)CCc2cc4c(cc2-3)OCO4)c(-c2ccc(OC)c(CC=C)c2)c1,5.7,7.06,,
18.7,1.72,2.65,CCCCCCCCc1c2[n+](cc3c(OC)c(OC)ccc13)CCc1cc3c(cc1-2)OCO3,14.7,0.79,,
> 10,6.11,13,CCCCCCOC(=O)Cc1c2[n+](cc3c(OC)c(OC)ccc13)CCc1cc3c(cc1-2)OCO3,19,10.6,,
4.23,1.53,1.72,CCCCCCCCCCOC(=O)Cc1c2[n+](cc3c(OC)c(OC)ccc13)CCc1cc3c(cc1-2)OCO3,3.83,4.35,,
2.03,2.04,2.88,C=CCc1ccc(OCCC)c(-c2ccc(OCCCCCC[n+]3ccc(/C=C/c4c[nH]c5ccccc45)cc3)c(CC=C)c2)c1,1.85,7.78,Active,
6.6,> 10,7.08,C=CCc1ccc(OCCCOC(=O)Cc2c3[n+](cc4c(OC)c(OC)ccc24)CCc2cc4c(cc2-3)OCO4)c(-c2ccc(OC)c(CC=C)c2)c1,6.5,19.4,,
3.14,7.74,3.53,C=CCc1ccc(OC)c(-c2ccc(OCCCOC(=O)Cc3c4[n+](cc5c(OC)c(OC)ccc35)CCc3cc5c(cc3-4)OCO5)c(CC=C)c2)c1,4.76,21.6,,3.53
2.67,5.52,3.22,C=CCc1ccc(OC(=O)Cc2c3[n+](cc4c(OC)c(OC)ccc24)CCc2cc4c(cc2-3)OCO4)c(-c2ccc(OC)c(CC=C)c2)c1,5,8.14,,

IC50 (HepG2) [µM],IC50 (A549) [µM],IC50 (NCI-H446 [2]) [µM],Compound,IC50 at 48 h [1] [µM],IC50 at 48 h [3] [µM],Activity (NCI-H446 [4]),selectivity ratio [5]
2.4,2.7,1.57,C=CCc1ccc(OC)c(-c2ccc(OCCCCCCCCCCOC(=O)Cc3c4[n+](cc5c(OC)c(OC)ccc35)CCc3cc5c(cc3-4)OCO5)c(CC=C)c2)c1,2.01,5.01,,
2.23,4.12,5.17,C=CCc1ccc(OC(=O)Cc2c3[n+](cc4c(OC)c(OC)ccc24)CCc2cc4c(cc2-3)OCO4)c(-c2ccc(OCCC)c(CC=C)c2)c1,3.8,7.08,,
3.02,5.98,5.06,C=CCc1ccc(OCCC)c(-c2ccc(OC(=O)Cc3c4[n+](cc5c(OC)c(OC)ccc35)CCc3cc5c(cc3-4)OCO5)c(CC=C)c2)c1,3.39,17.9,,
4.16,4.32,5.45,C=CCc1ccc(OCCCCCCCCCCOC(=O)Cc2c3[n+](cc4c(OC)c(OC)ccc24)CCc2cc4c(cc2-3)OCO4)c(-c2ccc(OCCC)c(CC=C)c2)c1,3.96,17.5,,
3.37,5.69,3.01,C=CCc1ccc(OCCCCCCCCCC[n+]2ccc(/C=C/c3c[nH]c4ccccc34)cc2)c(-c2ccc(OC)c(CC=C)c2)c1,4.03,7.47,,
2.73,10.6,5.21,C=CCc1ccc(OC)c(-c2ccc(OCCCCCCCCCC[n+]3ccc(/C=C/c4c[nH]c5ccccc45)cc3)c(CC=C)c2)c1,7.09,13.5,,
2.68,3.38,3.02,C=CCc1ccc(OC)c(-c2ccc(OCCCCCC[n+]3ccc(/C=C/c4c[nH]c5ccccc45)cc3)c(CC=C)c2)c1,3.56,20.4,,
1.75,3.27,3.29,C=CCc1ccc(OCCC[n+]2ccc(/C=C/c3c[nH]c4ccccc34)cc2)c(-c2ccc(OC)c(CC=C)c2)c1,4.62,9.84,,
2.23,3.5,2.44,C=CCc1ccc(OCCC)c(-c2ccc(OCCCOC(=O)Cc3c4[n+](cc5c(OC)c(OC)ccc35)CCc3cc5c(cc3-4)OCO5)c(CC=C)c2)c1,3.39,6.7,,
> 30,15.9,> 10,CCCOC(=O)Cc1c2[n+](cc3c(OC)c(OC)ccc13)CCc1cc3c(cc1-2)OCO3,> 30,> 30,,
1.94,1.88,3.01,C=CCc1ccc(OCCCCCCCCCCOC(=O)Cc2c3[n+](cc4c(OC)c(OC)ccc24)CCc2cc4c(cc2-3)OCO4)c(-c2ccc(OC)c(CC=C)c2)c1,5,5.83,,
2.35,4.93,3.28,C=CCc1ccc(OCCCCCC[n+]2ccc(/C=C/c3c[nH]c4ccccc34)cc2)c(-c2ccc(OCCC)c(CC=C)c2)c1,2.34,11.1,,
8.13,9.45,6.51,C=CCc1ccc(OCCC)c(-c2ccc(OCCCCCCCCCC[n+]3ccc(/C=C/c4c[nH]c5ccccc45)cc3)c(CC=C)c2)c1,12.3,16.5,,
13.3,1.18,0.83,CCCCCCCCCCc1c2[n+](cc3c(OC)c(OC)ccc13)CCc1cc3c(cc1-2)OCO3,3.8,1.52,,
1.14,1.69,1.74,C=CCc1ccc(OCCC[n+]2ccc(/C=C/c3c[nH]c4ccccc34)cc2)c(-c2ccc(OCCC)c(CC=C)c2)c1,1.77,9.47,,
5.23,8.07,7.57,C=CCc1ccc(OCCCCCCCCCC[n+]2ccc(/C=C/c3c[nH]c4ccccc34)cc2)c(-c2ccc(OCCC)c(CC=C)c2)c1,6.98,17.3,,
> 60,> 60,> 60,C[n+]1ccc(/C=C/c2c[nH]c3ccccc23)cc1,> 60,> 60,,

# — ChEMBL document CHEMBL5543068, “Mitochondrial targeting derivatives of honokiol enhanced selective antitumor activity in NCI-H446 cells and decreased in vivo toxicity in Caenorhabditis elegans” (Eur J Med Chem, 2024)
